In the supplement of paper PMC7840683:
± gives the standard deviation of the averaged measurements.

Test system: HepaRG
Test: LDH release cytotoxicity, % of total lysis control; higher = more cytotoxic
Conditions: 48 h
Procedure, shortened: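 Single-lot HepaRG cells in collagen I-coated 96-well plates were treated for 48 h in serum-free induction medium containing 0.5% DMSO with test chemicals in eight-point half-log series up to 100 µM. For total lysis, wells received 0.1% Triton X. LDH in 50 µL spent medium was assayed by resorufin fluorescence with CytoTox-ONE. Percent cytotoxicity was normalized to the on-plate vehicle and total lysis controls, with duplicates averaged.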

C=CC(=C)CCC=C(C)C [Myrcene]
Conditions | LDH release cytotoxicity [%]
0.031623 µM | -1.27 ± 1.6
0.1 µM | -2.39 ± 1
0.316228 µM | -2.35 ± 0.3
1 µM | -1.45 ± 0.82
3.16228 µM | -1.74 ± 1.4
10 µM | -1.93 ± 0.083
31.6228 µM | -1.8 ± 0.49
100 µM | 0.279 ± 0.4

C=CC(=O)NCNC(=O)C=C [N,N'-Methylenebisacrylamide]
Conditions | LDH release cytotoxicity [%]
0.03162 µM | -0.744 ± 0.34
0.1 µM | -0.797 ± 0.92
0.3162278 µM | -0.644 ± 0.19
1 µM | -1.4 ± 0.16
3.16228 µM | -0.3 ± 1.1
10 µM | -0.328 ± 0.92
31.6228 µM | -0.405 ± 0.65
100 µM | 1.88 ± 0.48

Cc1ccc(N(C)C)cc1 [N,N,4-Trimethylaniline]
Conditions | LDH release cytotoxicity [%]
0.03162 µM | -1.35 ± 0.18
0.1 µM | -2.34 ± 0.1
0.3162278 µM | -1.31 ± 0.2
1 µM | -1.01 ± 0.47
3.16228 µM | -1.56 ± 1.1
10 µM | -0.631 ± 0.84
31.6228 µM | 0.0145 ± 0.88
100 µM | 1.9 ± 0.59

CCN(CC)c1ccccc1 [N,N-Diethylaniline]
Conditions | LDH release cytotoxicity [%]
0.03162 µM | -1.55 ± 0.24
0.1 µM | -1.44 ± 0.47
0.3162278 µM | -1.37 ± 0.23
1 µM | -1.59 ± 0.4
3.16228 µM | -0.839 ± 0.86
10 µM | -1.07 ± 0.4
31.6228 µM | -0.362 ± 0.47
100 µM | 0.493 ± 0.011

CCN(CC)CCO [N,N-Diethylethanolamine]
Conditions | LDH release cytotoxicity [%]
0.03162 µM | -0.085 ± 0.14
0.1 µM | -0.79 ± 0.26
0.3162278 µM | -0.301 ± 0.27
1 µM | -0.496 ± 0.54
3.16228 µM | -0.856 ± 0.15
10 µM | -0.12 ± 0.4
31.6228 µM | 0.244 ± 0.28
100 µM | 1.74 ± 0.11

CN(C)c1ccccc1 [N,N-Dimethylaniline]
Conditions | LDH release cytotoxicity [%]
0.030516 µM | -0.91 ± 0.26
0.0965 µM | -1.79 ± 0.17
0.30516 µM | -1.99 ± 0.44
0.965 µM | -2.41 ± 0.19
3.0515979 µM | -1.849 ± 0.013
9.65 µM | -1.69 ± 0.57
30.516 µM | -2.11 ± 1.2
96.5 µM | -0.103 ± 1.2

CCCCCCCCCC[N+](C)(C)[O-] [N,N-Dimethyldecylamine oxide]
Conditions | LDH release cytotoxicity [%]
0.031623 µM | -1.68 ± 1.2
0.1 µM | -2.43 ± 1.6
0.316228 µM | -2.73 ± 1.6
1 µM | -2 ± 1.5
3.16228 µM | -2.26 ± 0.2
10 µM | -2.07 ± 0.077
31.6228 µM | -0.853 ± 1
100 µM | 1.25 ± 0.8

CN(C)C=O [N,N-Dimethylformamide]
Conditions | LDH release cytotoxicity [%]
0.03162 µM | -0.983 ± 1
0.1 µM | -2.55 ± 0.58
0.3162278 µM | -1.61 ± 0.38
1 µM | -2.12 ± 0.24
3.16228 µM | -2.02 ± 0.55
10 µM | -1.22 ± 0.21
31.6228 µM | -0.581 ± 0.99
100 µM | 0.434 ± 0.12

CCCCCCCCN(C)C [N,N-Dimethyloctylamine]
Conditions | LDH release cytotoxicity [%]
0.031939 µM | -1.23 ± 0.93
0.101 µM | -0.78 ± 0.02
0.31939 µM | -2.01 ± 1.1
1.01 µM | -1.97 ± 1.2
3.1939004 µM | -1.09 ± 0.4
10.1 µM | -1.35 ± 0.46
31.939 µM | -0.557 ± 0.49
101 µM | 2.22 ± 0.066

CCNc1cccc(C)c1 [N-Ethyl-3-methylaniline]
Conditions | LDH release cytotoxicity [%]
0.03162 µM | -1.25 ± 0.2
0.1 µM | -0.734 ± 0.64
0.3162278 µM | -1.13 ± 0.64
1 µM | -0.866 ± 0.67
3.16228 µM | -0.912 ± 0.26
10 µM | -0.509 ± 0.35
31.6228 µM | -0.424 ± 0.49
100 µM | 1.66 ± 0.53

CCNc1ccccc1 [N-Ethylaniline]
Conditions | LDH release cytotoxicity [%]
0.03162 µM | -1.05 ± 0.66
0.1 µM | -1.82 ± 1.1
0.3162278 µM | -0.782 ± 1.1
1 µM | -2.09 ± 1.1
3.16228 µM | -0.812 ± 0.9
10 µM | -0.444 ± 0.085
31.6228 µM | -0.781 ± 0.36
100 µM | 0.942 ± 0.42

CCNS(=O)(=O)C(F)(F)C(F)(F)C(F)(F)C(F)(F)C(F)(F)C(F)(F)C(F)(F)C(F)(F)F [N-Ethylperfluorooctanesulfonamide]
Conditions | LDH release cytotoxicity [%]
0.03162 µM | -0.318 ± 1.2
0.1 µM | -0.363 ± 0.53
0.3162278 µM | -1.47 ± 0.29
1 µM | -0.894 ± 0.41
3.16228 µM | -1.27 ± 0.88
10 µM | -0.5 ± 0.13
31.6228 µM | 0.958 ± 1.5
100 µM | 2.37 ± 1

CN1CCCC1=O [N-Methyl-2-pyrrolidone]
Conditions | LDH release cytotoxicity [%]
0.03162 µM | -2.92 ± 1.9
0.1 µM | -3.16 ± 0.5
0.3162278 µM | -2.9 ± 0.41
1 µM | -2.75 ± 0.92
3.16228 µM | -1.74 ± 1.5
10 µM | -1.93 ± 0.75
31.6228 µM | -2.93 ± 0.35
100 µM | 7.04 ± 0.053

CNC(C)=O [N-Methylacetamide]
Conditions | LDH release cytotoxicity [%]
0.03162 µM | -1.43 ± 0.55
0.1 µM | -0.843 ± 0.23
0.3162278 µM | -1.8 ± 0.64
1 µM | -2.12 ± 0.12
3.16228 µM | -2.26 ± 0.74
10 µM | -2.1 ± 0.54
31.6228 µM | -2.47 ± 0.73
100 µM | 34 ± 4.3

CCCCCCCCN(C)CCCCCCCC [N-Methyldioctylamine]
Conditions | LDH release cytotoxicity [%]
0.03162 µM | -0.874 ± 0.42
0.1 µM | -1.29 ± 0.46
0.3162278 µM | -1.43 ± 0.024
1 µM | -1.23 ± 0.32
3.16228 µM | -0.708 ± 0.21
10 µM | -1.14 ± 0.69
31.6228 µM | -0.369 ± 0.46
100 µM | 0.33 ± 0.63

CCCN(CCC)N=O [N-Nitrosodi-n-propylamine]
Conditions | LDH release cytotoxicity [%]
0.03162 µM | 0.0788 ± 0.46
0.1 µM | -0.576 ± 0.82
0.3162278 µM | -1.11 ± 1.1
1 µM | -2.21 ± 1.1
3.16228 µM | -1.474 ± 0.0032
10 µM | -1.09 ± 0.64
31.6228 µM | -1.53 ± 0.55
100 µM | 0.635 ± 0.017

CCCCN(CCCC)N=O [N-Nitrosodibutylamine]
Conditions | LDH release cytotoxicity [%]
0.03162 µM | -1.09 ± 0.045
0.1 µM | -1.36 ± 0.25
0.3162278 µM | -1.56 ± 0.69
1 µM | -2.27 ± 0.91
3.16228 µM | -1.56 ± 0.58
10 µM | -1.2 ± 0.67
31.6228 µM | -1.12 ± 0.17
100 µM | 0.0939 ± 0.25

CCN(CC)N=O [N-Nitrosodiethylamine]
Conditions | LDH release cytotoxicity [%]
0.03162 µM | -0.893 ± 0.61
0.1 µM | -0.536 ± 0.29
0.3162278 µM | -0.901 ± 0.49
1 µM | -0.963 ± 0.049
3.16228 µM | -0.649 ± 0.33
10 µM | -1.08 ± 0.2
31.6228 µM | 0.447 ± 0.97
100 µM | 0.842 ± 0.95

CN(C)N=O [N-Nitrosodimethylamine]
Conditions | LDH release cytotoxicity [%]
0.02893 µM | 0.0505 ± 1.7
0.0915 µM | -1.57 ± 0.31
0.289348 µM | -0.817 ± 0.056
0.915 µM | -1.29 ± 0.63
2.89348 µM | -2.32 ± 1.1
9.15 µM | -0.967
28.9348 µM | -0.682 ± 0.11
91.5 µM | 0.3 ± 0.0093

O=NN(c1ccccc1)c1ccccc1 [N-Nitrosodiphenylamine]
Conditions | LDH release cytotoxicity [%]
0.03162 µM | -1.74 ± 0.78
0.1 µM | -0.497 ± 0.4
0.3162278 µM | -1.57 ± 1.3
1 µM | -1.63 ± 0.68
3.16228 µM | -0.54 ± 0.41
10 µM | -0.535 ± 0.14
31.6228 µM | 1.3 ± 1.2
100 µM | 15.9 ± 4.8

Nc1ccc(Nc2ccccc2)cc1 [N-Phenyl-1,4-benzenediamine]
Conditions | LDH release cytotoxicity [%]
0.03162 µM | -1.18 ± 0.34
0.1 µM | -0.818 ± 0.15
0.3162278 µM | -1.06 ± 0.022
1 µM | -0.838 ± 1.2
3.16228 µM | -0.438 ± 0.59
10 µM | -0.107 ± 0.88
31.6228 µM | 1.04 ± 0.016
100 µM | 3.97 ± 0.91
